Data on 16 compounds can be found in ChEMBL document CHEMBL5096157, “Metalloaminopeptidases of the Protozoan Parasite Plasmodium falciparum as Targets for the Discovery of Novel Antimalarial Drugs” (J Med Chem, 2021).

Data set [1] concerns Plasmodium falciparum. The experiment in a line: Antimalarial activity against erythrocytic stage Plasmodium falciparum in human RBC assessed as inhibition of parasite growth incubated for 48 hrs by [3H]hypoxanthine incorporation assay. It counts as functional, organism-based, Red blood cell. To be noted: Erythrocyte.
Data set [2] has as its system Plasmodium falciparum. The experiment in a line: Antimalarial activity against erythrocytic stage Plasmodium falciparum in human RBC assessed as inhibition of parasite growth at 10 uM incubated for 48 hrs by [3H]hypoxanthine incorporation assay relative to control. Details: scale not given: the % may be the effect or the level left. It counts as functional, Red blood cell.

The nature of data set [3]: Inhibition of recombinant Plasmodium falciparum A-M17 assessed as inhibition constant using H-Leu-NHMec as substrate.
Data set [4] concerns Plasmodium falciparum. The experiment in a line: Antimalarial activity against Plasmodium falciparum 3D7 incubated for 48 hrs by [3H]hypoxanthine incorporation assay. The class given is functional, organism-based.
The test system of data set [5] is Plasmodium falciparum. In words: Antimalarial activity against Plasmodium falciparum NF54 wild-type assessed as reduction in proliferation incubated for 24 hrs by [3H]hypoxanthine incorporation assay. The class given is functional, organism-based.
The subject of data set [6] is Plasmodium falciparum. In words: Antimalarial activity against multidrug resistant Plasmodium falciparum W2 assessed as reduction in proliferation incubated for 24 hrs. The class given is functional, organism-based. To be noted: W2, 24 h.
A short description of data set [7]: Binding affinity to Plasmodium falciparum recombinant MetAP2 by Dex-Fum-mediated mammalian three-hybrid assay.
Data set [8] in a line: Inhibition of recombinant Plasmodium falciparum A-M1 using Leu-pNA as substrate by microplate reader analysis.
In data set [9] the test system is Plasmodium falciparum. In words: Antimalarial activity against Plasmodium falciparum 3D7 CQ-sensitive incubated for 48 hrs by [3H]hypoxanthine incorporation assay based MicroBeta plate reader.
In data set [10] the test system is Plasmodium falciparum. The experiment in a line: Antimalarial activity against multidrug resistant Plasmodium falciparum Dd2 incubated for 48 hrs by [3H]hypoxanthine incorporation assay based MicroBeta plate reader.
The subject of a further data set is Plasmodium berghei. The experiment in a line: In vivo antiplasmodial activity against Plasmodium berghei K173 infected in C57BL6 mouse assessed as mean survival time at 20 mg/kg, ip administered twice daily for 4 days after 2 hrs infection Giemsa staining based microscopic analysis relative to control. It counts as functional. The following applies: time 4 day.

The next data set has as its system Plasmodium yoelii. In words: In vivo antiplasmodial activity against Plasmodium yoelii 17X infected in C57BL6 mouse assessed as mean survival time at 20 mg/kg, ip administered twice daily for 4 days after 2 hrs infection Giemsa staining based microscopic analysis relative to control. It counts as functional. To be noted: time 4 day.
Data set [11] has as its system Plasmodium falciparum. The experiment in a line: Antimalarial activity against Plasmodium falciparum D10 incubated for 48 hrs by [3H]hypoxanthine incorporation assay. It counts as functional, organism-based.
Data set [12] has as its system Plasmodium chabaudi. The experiment in a line: In vivo antiplasmodial activity against Plasmodium chabaudi chabaudi infected in C57/BL6J mouse assessed as reducing parasitaemia at 100 mg/kg, po administered for 4 days relative to control. The class given is functional. Details: scale not given: the % may be the effect or the level left. The following applies: time 4 day.

The nature of data set [13]: Inhibition of Plasmodium falciparum alanyl aminopeptidase assessed as inhibition constant using H-Leu-NHMec as substrate by spectrofluorimeter based analysis.
Data set [14] in a line: Inhibition of recombinant Plasmodium falciparum A-M1 assessed as inhibition constant using para-nitroanilide as substrate at 10 nM by spectrophotometer based method.
A short description of data set [15]: Inhibition of recombinant Plasmodium falciparum A-M17 assessed as inhibition constant using leucine para-nitroanilide as substrate at 60 nM by spectrophotometer based method.
Data set [16] deals with Plasmodium falciparum. In words: Antimalarial activity against Plasmodium falciparum 3D7 CQ-sensitive assessed as inhibition of growth by liquid scintillation counting method. The class given is functional, organism-based.
For data set [17], the system named is Plasmodium falciparum. The experiment in a line: Antimalarial activity against Plasmodium falciparum chloroquine-resistant FcB1 Columbia assessed as inhibition of growth by liquid scintillation counting method. The class given is functional, organism-based.
Data set [18] has as its system Plasmodium chabaudi. The experiment in a line: In vivo antiplasmodial activity against Plasmodium chabaudi chabaudi 864VD infected in BALB/c mouse assessed as reducing parasitaemia at 12 to 24 mg/kg, ip administered for 3 days after infection and measured after 25 days Giemsa staining based microscopic analysis relative to control. Also on record: scale not given: the % may be the effect or the level left. The following applies: dose 12-24 mg/kg, time 25 day. It counts as functional.

A short description of data set [19]: Clearance in CD-1 mouse at 3 mg/kg, iv measured after 8 hrs hrs by UHPLC analysis. To be noted: in vivo. It counts as ADME, organism-based.
The nature of data set [20]: Half life in CD-1 mouse at 3 mg/kg, iv measured after 8 hrs hrs by UHPLC analysis. The class given is ADME, organism-based. To be noted: in vivo.
Data set [21] relates to Plasmodium falciparum. In words: Antimalarial activity against Plasmodium falciparum K1 incubated for 48 hrs by [3H]hypoxanthine incorporation assay. The class given is functional, organism-based.
Data set [22] deals with Plasmodium chabaudi. The experiment in a line: In vivo antiplasmodial activity against Plasmodium chabaudi chabaudi infected in C57/BL6J mouse assessed as reducing parasitaemia at 25 mg/kg, po administered for 4 days relative to control. It counts as functional. Details: scale not given: the % may be the effect or the level left. To be noted: time 4 day.
Data set [23] relates to Plasmodium chabaudi. The experiment in a line: In vivo antiplasmodial activity against Plasmodium chabaudi chabaudi infected in C57/BL6J mouse assessed as reducing parasitaemia at 50 mg/kg, po administered for 4 days relative to control. It counts as functional. Details: scale not given: the % may be the effect or the level left. The following applies: time 4 day.
Data set [24] has as its system Plasmodium chabaudi. In words: In vivo antiplasmodial activity against Plasmodium chabaudi chabaudi infected in C57/BL6J mouse assessed as reducing parasitaemia at 50 to 100 mg/kg, po administered for 4 days relative to control. The class given is functional. Details: scale not given: the % may be the effect or the level left. The following applies: dose 50-100 mg/kg, time 4 day.

Data set [25] is described as follows: Inhibition of Plasmodium falciparum M18 aspartyl aminopeptidase assessed as inhibition constant.

Several values for one entry are separate records, joined by “and”; a condition that tells them apart may be missing. Equal values may be shown once.

As for `CN1CCc2cccc3c2[C@@H]1Cc1ccc(O)c(O)c1-3` [(S)APOMORPHINE], the concentration for half-maximal inhibition (IC50) in the data set on Plasmodium falciparum [1] was 4000 nM. The Activity with Plasmodium falciparum [2] worked out at 87%.
Turning to `CO[C@H](C(=O)NO)[C@@H](CC(C)C)C(=O)N[C@H](C(=O)O)c1ccccc1`, the inhibition constant Ki in [3] is 25000 nM and 25700 nM. The IC50 in the data set with Plasmodium falciparum [4] was determined as 2000 nM.
On to `Oc1ccc(CCNc2c3ccccc3nc3ccccc23)cc1O`, for which the IC50 with Plasmodium falciparum [1] was determined as 1300 nM. The Activity with Plasmodium falciparum [2] is 96%.
For `CO[C@]12C(=O)CC[C@@]1(CO)[C@H]2[C@@]1(C)O[C@@H]1CC=C(C)C`, the half-inhibitory concentration (IC50) is 160 nM in the data set on Plasmodium falciparum [5], 270 nM in the data set on Plasmodium falciparum [6] and 116000 nM in data set [7].
As for `NCCC(=O)N(CCCN1CCN(CCCNc2ccnc3cc(Cl)ccc23)CC1)CC1CC1`, the half-maximal inhibitory concentration (IC50) in [8] was determined as 21000 nM.
In the case of `Cc1nc(-c2ccccn2)nc(NCCc2ccccc2)c1Cl`, the IC50 in the data set with Plasmodium falciparum [9] is 1590 nM; in the data set on Plasmodium falciparum [10], 900 nM. In addition, the Activity with Plasmodium berghei was 60%; in the data set on Plasmodium yoelii it was 80%.
Turning to `CC(C)CN(CCCN1CCN(CCCNc2ccnc3cc(Cl)ccc23)CC1)C(=O)C(N)C(=O)NO` (stereo unspecified), the IC50 in data set [8] worked out at 2500 nM.
As for `CO[C@H]1[C@H](C2(C)O[C@@H]2CC=C(C)C)[C@]2(CC[C@H]1OC(=O)NC(=O)CCl)CO2` (single isomer, unassigned), the half-inhibitory concentration (IC50) amounted to 2 nM in the data set with Plasmodium falciparum [5], 3 nM with Plasmodium falciparum [6] and 2000 nM in data set [7].
Take `CC(C)C[C@H](NC(=O)[C@@H](O)[C@H](N)Cc1ccccc1)C(=O)O` [UBENIMEX]: the concentration for half-maximal inhibition (IC50) in the data set with Plasmodium falciparum [11] is 14900 nM; in the data set on Plasmodium falciparum [4], 5000 nM. Also, the Activity in the data set on Plasmodium chabaudi [12] was 34%.
Regarding `CC(C)CN(CCCN1CCN(CCCNc2ccnc3cc(Cl)ccc23)CC1)C(=O)CC(=O)NO`, in data set [8], the IC50 turned out to be 854 nM.
Take `CC(C)C[C@H](NC(=O)[C@@H](O)[C@H](N)Cc1ccc([N+](=O)[O-])cc1)C(=O)O`: in [3], the inhibition constant Ki was 2.7 nM. The half-maximal inhibitory concentration (IC50) in the data set with Plasmodium falciparum [11] was 8000 nM.
As to `NC(CCc1ccccc1)P(=O)(O)CC(Cc1ccc(O)cc1)C(=O)O` (stereo unspecified), in data set [13], the Ki is 232 nM.
With `NC1CCc2cccc(-c3ccccc3)c2CC1=O` (stereo unspecified), the Ki in data set [14] is 50 nM; in [15], more than 100000 nM. Moreover, the figures for the IC50 in the data set with Plasmodium falciparum [16] and in the data set on Plasmodium falciparum [17] were 11200 nM and 6500 nM, respectively. Further, the Activity in the data set on Plasmodium chabaudi [18] was determined as 40%. The compound further displayed a clearance in data set [19] of 43 mL/min/kg. The compound further gave a half-life in data set [20] of 2.2 h.
Consider `COC(=O)[C@H](CC(C)C)NC(=O)[C@@H](O)[C@H](N)Cc1ccccc1` [BESTATIN METHYL ESTER], for which, in data set [3], the Ki was 138 nM. The compound also displayed a concentration for half-maximal inhibition (IC50) in the data set on Plasmodium falciparum [11] of 20500 nM.
Turning to `CO[C@H](C(=O)NO)[C@@H](CC(C)C)C(=O)N[C@H](C(=O)OC1CCCC1)c1ccccc1`, the Ki in [3] is 75000 nM and 76000 nM. In addition, the figures for the IC50 with Plasmodium falciparum [4] and with Plasmodium falciparum [21] were 370 nM and 376 nM, respectively. Besides, the results for the Activity in the data set on Plasmodium chabaudi [22], with Plasmodium chabaudi [23] and in the data set on Plasmodium chabaudi [24] were 43%, 52% and 66%, respectively.
As for `N[C@@H](CCC(=O)O)P(=O)(O)O`, the inhibitory constant (Ki) in [25] came out at 340 nM.
